Results on 61 compounds are retold here after patent US9550763B2, “Heterocyclic ring and carbocyclic derivative” (Shionogi & Co., Ltd., priority 2012, dated 2017).

For the experiment, the target named is human P2X3 receptor (Homo sapiens (Human), UniProt P56373). Put plainly: Evaluation of human P2X3 receptor inhibitory activity (Test Example 1-1, FDSS 3000, 96-well, 50 nM ATP). The settings on record: human P2X3 receptor in C6BU-1 cells; Test Example 1-1 (compounds I-001 to I-300). Format: cell-based. A digest of the protocol:
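C6BU-1 cells stably expressing human P2X3, loaded with 4 μM Fluo-3-AM (pH 7.5), preincubated 5 min with compound before 50 nM ATP challenge; fluorescence followed 4 min on FDSS 3000. IC50 derived from peak/baseline fluorescence ratio, no-compound as 0% and buffer-instead-of-ATP as 100% inhibition.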

The structures appear in SMILES notation.

Chain of human P2X3 receptor (P56373 whole entry): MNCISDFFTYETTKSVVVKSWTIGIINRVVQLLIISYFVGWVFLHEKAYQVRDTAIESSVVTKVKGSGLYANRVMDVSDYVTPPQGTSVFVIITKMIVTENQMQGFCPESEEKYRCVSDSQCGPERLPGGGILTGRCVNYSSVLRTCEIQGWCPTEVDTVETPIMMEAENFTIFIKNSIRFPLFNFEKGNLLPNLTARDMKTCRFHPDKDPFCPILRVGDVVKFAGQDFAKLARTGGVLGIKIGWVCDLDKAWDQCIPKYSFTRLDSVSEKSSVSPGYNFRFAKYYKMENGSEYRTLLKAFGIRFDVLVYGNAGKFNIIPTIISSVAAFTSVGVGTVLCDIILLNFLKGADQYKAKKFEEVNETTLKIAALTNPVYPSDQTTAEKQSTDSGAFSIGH

Take `CN(C)C(=O)c1c[nH]/c(=N\c2ccc(Oc3cccc(F)n3)cc2)n(Cc2ccc(Cl)cc2)c1=O` [Compound I-195]: the IC50 is 70 nM.
For `CCCn1c(=O)cc(Nc2ccc(Oc3cnc(C#N)nc3)cn2)n(Cc2ccc(Cl)cc2)c1=O` [Compound I-196] the value was 37 nM.
For the compound `CC(=O)N(C)c1c[nH]/c(=N\c2ccc(Oc3cccc(C#N)n3)cc2)n(Cc2ccc(Cl)cc2)c1=O` [Compound I-197], the IC50 came to 45 nM.
The compound `CCC(=O)N(C)c1c[nH]/c(=N\c2ccc(Oc3cccc(C#N)n3)cc2)n(Cc2ccc(Cl)cc2)c1=O` [Compound I-198] had an IC50 of 12 nM.
With `O=C(NC1CCOCC1)c1cn(Cc2ccc(Cl)cc2)c(Nc2ccc(Oc3ccncc3)cc2)nc1=O` [Compound I-199], the midpoint of inhibition, the IC50, lay at 8 nM.
For `NC(=O)c1ccc(Oc2ccc(Nc3nc(=O)c(C(=O)NC4CCOCC4)cn3Cc3ccc(Cl)cc3)cc2)cn1` [Compound I-200] the value was 10 nM.
Compound `CCCn1c(=O)cc(Nc2ccc(Oc3cnc(C(=O)O)nc3)cn2)n(Cc2ccc(Cl)cc2)c1=O` [Compound I-201] yielded an IC50 of 96 nM.
On to `CCn1c(=O)cc(Nc2cc(C)c(Oc3cccc(C(=O)O)c3)cn2)n(Cc2ccc(Cl)cc2)c1=O` [Compound I-203], for which half-maximal inhibition (IC50) was put at 336 nM.
`COc1ccc(-c2c[nH]/c(=N\c3ccc(Oc4ccon4)cc3)n(Cc3ccc(Cl)cc3)c2=O)cn1` [Compound I-204] gave an IC50 of 198 nM.
Regarding `O=c1c(-c2ccc(O)nc2)c[nH]/c(=N\c2ccc(Oc3ccon3)cc2)n1Cc1ccc(Cl)cc1` [Compound I-205], half-maximal inhibition (IC50) required 153 nM.
`CCOC(=O)c1c[nH]/c(=N\c2ccc(Oc3ccc(F)cn3)c(F)c2)n(Cc2ccc(Cl)cc2)c1=O` [Compound I-206]: the IC50 is 48 nM.
With `O=C(O)c1c[nH]/c(=N\c2ccc(Oc3ccc(F)cn3)c(F)c2)n(Cc2ccc(Cl)cc2)c1=O` [Compound I-207], inhibition was half-maximal at 252 nM (IC50).
Regarding `NC(=O)c1c[nH]/c(=N\c2ccc(Oc3ccc(F)cn3)c(F)c2)n(Cc2ccc(Cl)cc2)c1=O` [Compound I-208], half-maximal inhibition (IC50) required 31 nM.
For `CN(C)C(=O)c1c[nH]/c(=N\c2ccc(Oc3cccc(C#N)n3)cc2)n(Cc2ccc(Cl)cc2)c1=O` [Compound I-209] the value was 102 nM.
Compound `CC(=O)N(C)c1c[nH]/c(=N\c2ccc(Oc3cccc(C(=O)O)n3)cc2)n(Cc2ccc(Cl)cc2)c1=O` [Compound I-210] yielded an IC50 of 17 nM.
As for `O=C(Nc1c[nH]/c(=N\c2ccc(Oc3ccon3)cc2)n(Cc2ccc(Cl)cc2)c1=O)C1CC(F)(F)C1` [Compound I-211], the IC50 worked out at 15 nM.
`O=C(Nc1c[nH]/c(=N\c2ccc(Oc3ccon3)cc2)n(Cc2ccc(Cl)cc2)c1=O)C1CCOC1` (stereo not shown) [Compound I-212] displayed an IC50 of 11 nM.
Regarding `O=C(Nc1c[nH]/c(=N\c2ccc(Oc3ccon3)cc2)n(Cc2ccc(Cl)cc2)c1=O)C1CCOC1` (stereo not shown) [Compound I-213], the IC50 stood at 27 nM.
`O=C(Nc1c[nH]/c(=N\c2ccc(Oc3ccc(F)cn3)cc2)n(Cc2ccc(Cl)cc2)c1=O)C1COC1` [Compound I-214] registered an IC50 of 13 nM.
For `N#Cc1cccc(Oc2ccc(Nc3nc(=O)c(C(=O)NC4CCOCC4)cn3Cc3ccc(Cl)cc3)cc2)n1` [Compound I-216] the value was 6 nM; for `NC(=O)c1cccc(Oc2ccc(Nc3nc(=O)c(C(=O)NC4CCOCC4)cn3Cc3ccc(Cl)cc3)cc2)n1` [Compound I-217], 5 nM.
`O=c1c(NC(=O)[C@H]2C[C@H](F)C2)c[nH]/c(=N\c2ccc(Oc3ccon3)cc2)n1Cc1ccc(Cl)cc1` [Compound I-218]: the IC50 amounted to 17 nM.
Compound `O=c1c(NC(=O)[C@H]2C[C@@H](F)C2)c[nH]/c(=N\c2ccc(Oc3ccon3)cc2)n1Cc1ccc(Cl)cc1` [Compound I-219] came in with an IC50 of 14 nM.
Compound `CN(C)C(=O)c1c[nH]/c(=N\c2ccc(Oc3cccc(C(N)=O)n3)cc2)n(Cc2ccc(Cl)cc2)c1=O` [Compound I-220] returned a 50% inhibitory concentration (IC50) of 178 nM.
For `Cc1nsc(Oc2ccc(/N=c3\[nH]cc(C(=O)N(C)C)c(=O)n3Cc3ccc(Cl)cc3)cc2)n1` [Compound I-221] the value was 65 nM; for `CN(C)C(=O)c1c[nH]/c(=N\c2ccc(Oc3cccc(C(=O)O)n3)cc2)n(Cc2ccc(Cl)cc2)c1=O` [Compound I-222], 47 nM.
For `O=C(Nc1c[nH]/c(=N\c2ccc(Oc3ccon3)cc2)n(Cc2ccc(Cl)cc2)c1=O)c1ccno1` [Compound I-223] the value was 78 nM; for `Cc1nsc(Oc2ccc(/N=c3\[nH]cc(NC(=O)C4CCOCC4)c(=O)n3Cc3ccc(Cl)cc3)cc2)n1` [Compound I-225], 6 nM; for `O=C(Nc1c[nH]/c(=N\c2ccc(Oc3ccon3)cc2)n(Cc2ccc(Cl)cc2)c1=O)c1ccon1` [Compound I-226], 208 nM.
`N#Cc1cc(Oc2ccc(Nc3nc(=O)c(C(=O)NC4CCOCC4)cn3Cc3ccc(Cl)cc3)cc2)ccn1` [Compound I-227] showed an IC50 of 6 nM.
For the compound `N#Cc1ccc(Oc2ccc(Nc3nc(=O)c(C(=O)NC4CCOCC4)cn3Cc3ccc(Cl)cc3)cc2)nc1` [Compound I-228], the IC50 came to 10 nM.
`N#Cc1ccc(Oc2ccc(Nc3nc(=O)c(C(=O)NC4CCOCC4)cn3Cc3ccc(Cl)cc3)cc2)cn1` [Compound I-229] came in with an IC50 of 7 nM.
The compound `O=C(Nc1c[nH]/c(=N\c2ccc(Oc3ccon3)cc2)n(Cc2ccc(Cl)cc2)c1=O)c1cc[nH]n1` [Compound I-231] came in with an IC50 of 388 nM.
`Cn1cc(C(=O)Nc2c[nH]/c(=N\c3ccc(Oc4ccon4)cc3)n(Cc3ccc(Cl)cc3)c2=O)cn1` [Compound I-233] yielded an IC50 of 236 nM.
Regarding `O=C(Nc1c[nH]/c(=N\c2ccc(Oc3ccon3)cc2)n(Cc2ccc(Cl)cc2)c1=O)c1cn[nH]c1` [Compound I-235], the IC50 worked out at 225 nM.
For `N#C/N=C(/Nc1c[nH]/c(=N\c2ccc(Oc3ccon3)cc2)n(Cc2ccc(Cl)cc2)c1=O)Oc1ccccc1` [Compound I-237] the value was 219 nM; for `CCOC(=O)/N=C(\NC)Nc1c[nH]/c(=N\c2ccc(Oc3ccon3)cc2)n(Cc2ccc(Cl)cc2)c1=O` [Compound I-238], 990 nM; for `NC(=O)c1ccc(Oc2ccc(Nc3nc(=O)c(C(=O)NC4CCOCC4)cn3Cc3ccc(Cl)cc3)cc2)nc1` [Compound I-239], 5 nM.
Turning to `NC(=O)c1cc(Oc2ccc(Nc3nc(=O)c(C(=O)NC4CCOCC4)cn3Cc3ccc(Cl)cc3)cc2)ccn1` [Compound I-240], the IC50 came to 6 nM.
On to `CCC(=O)N(C)C1=CN/C(=N\c2ccc(Oc3cccc(C(=O)O)n3)cc2)N(Cc2ccc(Cl)cc2)C1` [Compound I-241], for which the concentration for half-maximal inhibition (IC50) amounted to 8 nM.
As to `C/C(O)=C(/C#N)C(=O)Nc1c[nH]/c(=N\c2ccc(Oc3ccon3)cc2)n(Cc2ccc(Cl)cc2)c1=O` [Compound I-242], it took 6 nM to reach half-maximal inhibition (IC50).
For `CN/C(=N\C#N)Nc1c[nH]/c(=N\c2ccc(Oc3ccon3)cc2)n(Cc2ccc(Cl)cc2)c1=O` [Compound I-243] the value was 557 nM; for `COC(=O)[C@@H](C)Cn1c(=O)cc(Nc2ccc(Oc3cccc(F)c3)c(C)n2)n(Cc2ccc(Cl)cc2)c1=O` [Compound I-244], 646 nM.
With `Cc1nc(Nc2cc(=O)n(C[C@H](C)C(=O)O)c(=O)n2Cc2ccc(Cl)cc2)ccc1Oc1cccc(F)c1` [Compound I-245], the IC50 was found to be 58 nM.
For `CCn1c(=O)cc(Nc2ccc(Oc3cccc(C#N)c3)c(C)n2)n(Cc2ccc(Cl)cc2)c1=O` [Compound I-246] the value was 71 nM; for `CCCn1c(=O)cc(Nc2ccc(Oc3cccc(C#N)c3)c(C)n2)n(Cc2ccc(Cl)cc2)c1=O` [Compound I-247], 96 nM.
For `Cc1cc(/N=c2\[nH]cc(NC(=O)C3CCOCC3)c(=O)n2Cc2ccc(Cl)cc2)ccc1Oc1ccon1` [Compound I-248] the value was 6 nM; for `Cc1cc(Oc2ccc(/N=c3\[nH]cc(NC(=O)C4CCOCC4)c(=O)n3Cc3ccc(Cl)cc3)cc2F)no1` [Compound I-249], 6 nM.
The compound `CCN/C(=N\C#N)Nc1c[nH]/c(=N\c2ccc(Oc3ccon3)cc2)n(Cc2ccc(Cl)cc2)c1=O` [Compound I-251] showed an IC50 of 118 nM.
In turn, `O=C(Nc1c[nH]/c(=N\c2ccc(Oc3ccon3)cc2)n(Cc2ccc(Cl)cc2)c1=O)c1ccccc1` [Compound I-253] registered an IC50 of 61 nM.
`O=C(Nc1c[nH]/c(=N\c2ccc(Oc3ccon3)cc2)n(Cc2ccc(Cl)cc2)c1=O)c1ccccn1` [Compound I-254] registered an IC50 of 868 nM.
Compound `Cc1cc(C(=O)Nc2c[nH]/c(=N\c3ccc(Oc4ccon4)cc3)n(Cc3ccc(Cl)cc3)c2=O)on1` [Compound I-255] displayed an IC50 of 147 nM.
For `Cc1noc(C)c1C(=O)Nc1c[nH]/c(=N\c2ccc(Oc3ccon3)cc2)n(Cc2ccc(Cl)cc2)c1=O` [Compound I-256] the value was 14 nM; for `CNC(=O)c1c[nH]/c(=N\c2ccc(Oc3nc(C)ns3)cc2)n(Cc2ccc(Cl)cc2)c1=O` [Compound I-257], 41 nM.
Compound `CCn1c(=O)cc(Nc2ccc(Oc3cccc(C(=O)O)c3)c(C)n2)n(Cc2ccc(Cl)cc2)c1=O` [Compound I-258] came in with a half-inhibitory concentration (IC50) of 27 nM.
In turn, `CCCn1c(=O)cc(Nc2ccc(Oc3cccc(C(=O)O)c3)c(C)n2)n(Cc2ccc(Cl)cc2)c1=O` [Compound I-259] had an IC50 of 16 nM.
With `CCn1c(=O)cc(Nc2ccc(Oc3cccc(C(N)=O)c3)c(C)n2)n(Cc2ccc(Cl)cc2)c1=O` [Compound I-260], inhibition was half-maximal at 36 nM (IC50).
The compound `N#Cc1c[nH]/c(=N\c2ccc(Oc3ccc(F)cn3)cc2)n(Cc2ccc(Cl)cc2)c1=O` [Compound I-261] registered an IC50 of 498 nM.
`CCc1oc2ccc(/N=c3\[nH]cc(NC(=O)C4CCOCC4)c(=O)n3Cc3ccc(Cl)cn3)cc2c1C` [Compound I-262]: the IC50 was 98 nM.
`Cc1nocc1C(=O)Nc1c[nH]/c(=N\c2ccc(Oc3ccon3)cc2)n(Cc2ccc(Cl)cc2)c1=O` [Compound I-264] displayed an IC50 of 15 nM.
With `O=C(Nc1c[nH]/c(=N\c2ccc(Oc3ccon3)cc2)n(Cc2ccc(Cl)cc2)c1=O)c1cccnc1` [Compound I-265], inhibition was half-maximal at 48 nM (IC50).
